# Assay results published in ChEMBL document CHEMBL1201862, “PubChem BioAssay data set” (2004).
# Calls of active or inactive are those of the source.
# What was measured:
# Vero = experiment: host cell cytotoxicity of antiviral hits, dose response, cytotoxicity control for West Nile virus antiviral project, secondary assay (AID 1650); assay type: functional; conditions: Chlorocebus sabaeus
# HeLa = experiment: HeLa cell cytotoxicity, dose response, cytotoxicity control, ATP luminescence, cherry-pick samples (AID 687004); assay type: functional, cell-based; conditions: Homo sapiens
# Leucine aminopeptidase = biological target: T1, Leucine aminopeptidase (Plasmodium falciparum 3D7, UniProt Q8IL11); experiment: P. falciparum M17LAP inhibitors, primary screen, biochemical, fluorogenic H-Leu-NHMec substrate, 1536-well (AID 1619); assay type: functional
# T1 sequence (Q8IL11 whole entry): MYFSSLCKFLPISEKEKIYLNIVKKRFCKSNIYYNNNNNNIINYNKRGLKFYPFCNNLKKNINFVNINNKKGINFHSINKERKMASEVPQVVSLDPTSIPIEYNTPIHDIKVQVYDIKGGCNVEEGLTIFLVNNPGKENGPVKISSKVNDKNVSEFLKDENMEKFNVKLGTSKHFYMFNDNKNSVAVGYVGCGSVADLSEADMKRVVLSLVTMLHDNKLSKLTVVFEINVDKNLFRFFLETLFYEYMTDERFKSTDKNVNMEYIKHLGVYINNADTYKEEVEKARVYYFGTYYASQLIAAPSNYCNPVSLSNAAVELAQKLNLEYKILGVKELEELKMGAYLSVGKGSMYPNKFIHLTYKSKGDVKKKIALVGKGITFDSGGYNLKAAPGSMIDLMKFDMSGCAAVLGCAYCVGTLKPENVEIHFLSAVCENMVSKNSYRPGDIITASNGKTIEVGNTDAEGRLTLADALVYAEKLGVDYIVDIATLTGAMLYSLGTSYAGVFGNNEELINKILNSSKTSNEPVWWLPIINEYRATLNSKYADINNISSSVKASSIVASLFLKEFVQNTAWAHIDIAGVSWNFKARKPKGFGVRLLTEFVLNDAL
# Aspartyl aminopeptidase = biological target: T2, Aspartyl aminopeptidase (Plasmodium falciparum 3D7, UniProt Q8I2J3); experiment: Counterscreen for inhibitors of M1 and M17 aminopeptidases: QFRET-based biochemical high throughput dose response assay for inhibitors of the Plasmodium falciparum M18 Aspartyl Aminopeptidase (PFM18AAP). [Related PubChem assays: 1619 (Screening assay (M17LAP inhibitors).), 1445 (Screening assay (M1AAP inhibitors).)]
# T2 sequence (Q8I2J3 whole entry): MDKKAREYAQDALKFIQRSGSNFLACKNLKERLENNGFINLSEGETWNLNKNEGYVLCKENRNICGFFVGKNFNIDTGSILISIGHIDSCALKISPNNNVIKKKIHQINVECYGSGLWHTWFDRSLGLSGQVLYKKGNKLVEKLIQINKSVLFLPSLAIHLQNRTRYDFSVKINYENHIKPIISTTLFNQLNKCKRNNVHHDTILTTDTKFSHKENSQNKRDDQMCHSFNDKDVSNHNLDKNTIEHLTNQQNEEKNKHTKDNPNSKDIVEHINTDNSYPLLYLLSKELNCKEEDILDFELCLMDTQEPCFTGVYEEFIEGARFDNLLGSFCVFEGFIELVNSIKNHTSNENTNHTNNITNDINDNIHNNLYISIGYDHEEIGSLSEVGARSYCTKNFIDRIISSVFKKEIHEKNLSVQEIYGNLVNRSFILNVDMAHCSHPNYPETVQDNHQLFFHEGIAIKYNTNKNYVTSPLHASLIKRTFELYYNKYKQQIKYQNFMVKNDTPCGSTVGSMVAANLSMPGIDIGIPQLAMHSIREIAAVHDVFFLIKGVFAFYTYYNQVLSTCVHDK
# Procathepsin L = Procathepsin L (Homo sapiens, UniProt P07711); experiment: cathepsin L inhibitors, dose response, counter-screen for M1/M17 aminopeptidase inhibitor project, biochemical, QFRET, 1536-well (AID 2214)
# [1] = inhibitors of intracellular T. cruzi replication, confirmation, NIH3T3 host cells, beta-gal luminescence (AID 2044); assay type: functional, cell-based;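 further: intracellular parasites grown in NIH/3T3 mouse fibroblasts as host cells; luminescent beta-galactosidase reporter signal from transgenic T. cruzi replicating inside host cells; inhibitors lower the luminescence signal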
# [2] = cytotoxicity toward NIH3T3 fibroblasts, dose response, counter-screen, cell-based, ATP luminescence, mouse fibroblasts (AID 2010); assay type: functional;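 further: cells exposed to compound for about 90 hours before reading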
# [3] = test system: Streptococcus sp. 'group A'; experiment: growth inhibition of control SK(-) GAS strain, dose response, counter-screen for streptokinase expression inhibitor project, luminescence, kanamycin, BacTiterGlo, confirmation (AID 1900); assay type: functional, organism-based
# Streptokinase A = biological target: T3, Streptokinase A (Streptococcus pyogenes serotype M1, UniProt P10520); experiment: S. pyogenes streptokinase expression inhibitors, potency, dose response, plasminogen activation absorbance, OD405 (AID 1914); assay type: functional, Streptococcus pyogenes M1 GAS;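 further: secreted streptokinase activity via plasminogen activation per viability signal from cell pellet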
# T3 sequence (P10520 whole entry): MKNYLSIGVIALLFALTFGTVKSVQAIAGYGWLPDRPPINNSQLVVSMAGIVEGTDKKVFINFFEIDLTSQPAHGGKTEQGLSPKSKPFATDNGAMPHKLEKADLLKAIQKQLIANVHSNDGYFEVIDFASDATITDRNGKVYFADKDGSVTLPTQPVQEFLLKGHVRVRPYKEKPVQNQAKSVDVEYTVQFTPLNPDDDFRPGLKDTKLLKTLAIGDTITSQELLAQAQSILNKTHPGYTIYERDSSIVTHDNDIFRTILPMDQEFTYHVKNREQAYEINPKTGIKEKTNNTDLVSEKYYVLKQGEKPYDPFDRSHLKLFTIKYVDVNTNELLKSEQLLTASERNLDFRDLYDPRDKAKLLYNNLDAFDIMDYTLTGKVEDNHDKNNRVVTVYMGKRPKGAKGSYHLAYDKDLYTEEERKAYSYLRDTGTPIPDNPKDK
# Streptococcus = experiment: Group A Streptococcus viability loss, dose response, counter-screen for streptokinase expression inhibitor project, luminescence, BacTiterGlo (AID 1915); assay type: functional, organism-based;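 further: potency for reduction of bacterial viability or growth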
# [4] = biological target: Disintegrin and metalloproteinase domain-containing protein 17 (Homo sapiens, UniProt P78536); experiment: exosite inhibitors of ADAM17, dose response, biochemical (AID 743260)
# [5] = ADAM10 protease inhibitors, dose response, selectivity assay for ADAM17 exosite inhibitor project, biochemical, FRET peptide substrate, recombinant human ADAM10 (AID 743259);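 further: ADAM10 enzyme cleaving a FRET peptide substrate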
# [6] = biological target: T4, Apoptotic protease-activating factor 1 (Homo sapiens, UniProt O14727); assay type: functional
# T4 sequence (O14727 whole entry): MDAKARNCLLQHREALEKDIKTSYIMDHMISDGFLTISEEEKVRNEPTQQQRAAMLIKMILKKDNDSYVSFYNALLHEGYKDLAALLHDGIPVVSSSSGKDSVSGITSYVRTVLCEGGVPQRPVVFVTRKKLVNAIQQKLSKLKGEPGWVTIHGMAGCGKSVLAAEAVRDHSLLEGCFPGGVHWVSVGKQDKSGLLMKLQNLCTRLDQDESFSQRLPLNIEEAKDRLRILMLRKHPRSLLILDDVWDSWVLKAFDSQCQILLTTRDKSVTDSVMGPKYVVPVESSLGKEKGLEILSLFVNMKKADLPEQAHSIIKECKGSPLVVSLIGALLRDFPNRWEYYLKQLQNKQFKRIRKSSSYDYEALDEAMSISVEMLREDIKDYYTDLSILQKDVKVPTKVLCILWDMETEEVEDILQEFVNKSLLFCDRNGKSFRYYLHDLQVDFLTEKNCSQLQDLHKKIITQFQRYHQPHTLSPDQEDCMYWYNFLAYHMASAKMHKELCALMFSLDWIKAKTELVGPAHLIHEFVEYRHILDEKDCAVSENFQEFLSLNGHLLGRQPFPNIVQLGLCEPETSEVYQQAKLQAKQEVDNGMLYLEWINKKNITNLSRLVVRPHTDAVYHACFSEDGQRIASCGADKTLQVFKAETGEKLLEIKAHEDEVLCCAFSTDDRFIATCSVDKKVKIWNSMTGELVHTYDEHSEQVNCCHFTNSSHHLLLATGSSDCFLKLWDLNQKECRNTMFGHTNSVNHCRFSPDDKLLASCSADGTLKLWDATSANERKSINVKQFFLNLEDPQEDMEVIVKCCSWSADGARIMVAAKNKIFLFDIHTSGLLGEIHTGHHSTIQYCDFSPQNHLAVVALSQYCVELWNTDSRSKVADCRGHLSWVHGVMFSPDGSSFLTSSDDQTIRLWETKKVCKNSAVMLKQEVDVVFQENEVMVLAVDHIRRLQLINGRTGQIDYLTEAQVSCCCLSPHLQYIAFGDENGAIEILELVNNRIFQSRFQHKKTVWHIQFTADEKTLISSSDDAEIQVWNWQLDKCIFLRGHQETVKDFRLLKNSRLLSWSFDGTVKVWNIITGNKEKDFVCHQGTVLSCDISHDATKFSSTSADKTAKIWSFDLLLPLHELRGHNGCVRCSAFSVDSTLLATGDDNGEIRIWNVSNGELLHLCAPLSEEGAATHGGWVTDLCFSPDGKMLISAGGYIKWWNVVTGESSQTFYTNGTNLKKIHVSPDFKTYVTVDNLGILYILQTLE
# Chain of Disintegrin and metalloproteinase domain-containing protein 17 (P78536 whole entry, the tested form may be a part): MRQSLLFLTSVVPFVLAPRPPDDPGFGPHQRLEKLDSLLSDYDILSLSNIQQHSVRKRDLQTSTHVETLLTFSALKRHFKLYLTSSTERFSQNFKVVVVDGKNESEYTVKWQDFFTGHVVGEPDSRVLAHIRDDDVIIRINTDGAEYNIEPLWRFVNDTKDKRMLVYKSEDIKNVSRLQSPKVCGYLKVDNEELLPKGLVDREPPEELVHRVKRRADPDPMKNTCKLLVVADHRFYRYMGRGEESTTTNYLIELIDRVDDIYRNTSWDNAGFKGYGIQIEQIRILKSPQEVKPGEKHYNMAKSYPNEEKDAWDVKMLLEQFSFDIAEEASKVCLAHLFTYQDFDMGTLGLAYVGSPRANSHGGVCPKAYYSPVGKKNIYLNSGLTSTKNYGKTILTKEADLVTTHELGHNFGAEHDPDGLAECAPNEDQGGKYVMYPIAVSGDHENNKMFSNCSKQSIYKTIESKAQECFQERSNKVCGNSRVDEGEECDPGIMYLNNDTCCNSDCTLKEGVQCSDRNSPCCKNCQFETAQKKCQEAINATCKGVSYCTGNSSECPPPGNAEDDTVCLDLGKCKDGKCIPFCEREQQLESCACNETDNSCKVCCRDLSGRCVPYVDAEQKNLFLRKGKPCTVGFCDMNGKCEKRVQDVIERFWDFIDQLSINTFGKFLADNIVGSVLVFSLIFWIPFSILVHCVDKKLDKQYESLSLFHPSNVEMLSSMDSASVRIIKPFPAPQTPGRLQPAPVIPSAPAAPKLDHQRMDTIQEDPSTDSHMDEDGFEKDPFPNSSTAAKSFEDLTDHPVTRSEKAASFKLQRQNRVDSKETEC
# Chain of Procathepsin L (P07711 whole entry): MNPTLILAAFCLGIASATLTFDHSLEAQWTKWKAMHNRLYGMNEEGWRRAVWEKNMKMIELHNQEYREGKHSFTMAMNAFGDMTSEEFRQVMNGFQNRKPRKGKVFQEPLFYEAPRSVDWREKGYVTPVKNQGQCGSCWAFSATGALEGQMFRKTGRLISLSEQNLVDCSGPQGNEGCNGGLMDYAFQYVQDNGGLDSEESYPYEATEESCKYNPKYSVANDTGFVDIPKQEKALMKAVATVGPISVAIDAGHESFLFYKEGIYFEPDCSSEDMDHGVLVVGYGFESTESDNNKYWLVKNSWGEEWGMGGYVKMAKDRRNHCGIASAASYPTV
smiles,measurement,setting,value
O=C1COc2ccc(C(=O)CSc3nc4ccccc4c(=O)n3-c3ccc(Cl)c(Cl)c3)cc2N1,CC50,Vero,16.6 µM (active)
COc1cc(C(=O)Oc2ccccc2N)cc(OC)c1OC,AC50,HeLa,> 52 µM (inactive)
O=C(CCN1C(=O)/C(=C/c2ccc(F)cc2)SC1=S)N[C@@H](CO)Cc1ccccc1,CC50,Vero,49.9 µM (active)
CCc1ccc(Nc2nnc(SC3CCOC3=O)s2)cc1 (stereo unspecified),IC50,Leucine aminopeptidase,2.64 µM (active)
same,IC50,Aspartyl aminopeptidase,> 73.5 µM (not active)
same,IC50,Procathepsin L,> 59.6 µM (not active)
CC(C)(CN=C(S)NCCc1ccccc1)CN=C(S)NCCc1ccccc1,CC50,Vero,23.7 µM (active)
same,EC50,[1],3.35 µM (active)
same,EC50,[2],> 60 µM (not active)
COc1ccc(OC)c(NC(=O)C2C(C(=O)O)C3(Cl)C(Cl)=C(Cl)C2(Cl)C3(Cl)Cl)c1 (stereo unspecified),IC50,Leucine aminopeptidase,< 1 µM (active)
same,IC50,Aspartyl aminopeptidase,> 73.5 µM (not active)
same,IC50,Procathepsin L,> 59.6 µM (not active)
CC1CCCCN1C(=O)CSc1nc(C2CC2)nc2c1cnn2-c1ccccc1 (stereo unspecified),AC50,HeLa,> 52 µM (inactive)
COc1ccc(NC(S)=Nc2nc(CC(=O)Nc3ccccc3OC)cs2)cc1,EC50,[3],6.09 µM (active)
same,EC50,Streptokinase A,> 150 µM (not active)
same,EC50,Streptococcus,17.3 µM (active)
same,IC50,[4],> 69.5 µM (inactive)
same,IC50,[5],> 2.58 µM (active)
COC(=O)C1=C(c2ccc(F)cc2OCc2ccccc2)C[C@@H]2CC[C@H]1N2C(=O)NCc1cccc(C(F)(F)F)c1,IC50,[4],> 69.5 µM (inactive)
same,IC50,[5],> 69.5 µM (inactive)
COCCN(Cc1ccccc1)C(=O)c1cccc(S(=O)(=O)N2CCN(c3ccccc3)CC2)c1,IC50,[6],> 100 µM (inactive)
